# Laboratory results as given in US20220056018A1, “SREBP INHIBITORS COMPRISING A THIOPHENE CENTRAL RING” (Capulus Therapeutics, LLC, priority 2019, published 2022).
# What was measured:
# [1] = Stability in mouse liver microsomes; assay type: in vitro ADME
# Method in brief: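 Mouse liver microsomes, run by the same procedure as for human microsomes: 100 μM working solution pre-incubated with microsomes in 100 mM potassium phosphate buffer for 10 min at 37° C, then incubated 60 min at 37° C with NADPH cofactor, plus a no-cofactor control. Remaining compound quantified by LC-MS/MS.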
# [2] = Stability in human liver microsomes; assay type: in vitro ADME; conditions: 37° C., NADPH
# Method in brief: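 Compound from a 100 μM working solution was preincubated 10 min at 37 °C with human liver microsomes (added at 3.33 mg/mL) in 100 mM potassium phosphate. Incubation then ran 60 min at 37 °C with NADPH (2.85 mM cofactor solution), alongside a no-cofactor 60-min control and a 0-min sample. Parent compound was quantified by LC-MS/MS after acetonitrile quench for half-life.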
# SREBP = experiment: Reporter Screening Assay (SRE-luciferase reporter, HepG2); assay type: cell-based; conditions: Homo sapiens; SRE-luciferase reporter HepG2 cells, 24 hours, 0.01 uM to 10 uM; read-out: I: Reporter Screening Assay (Ave EC50 (nM))
# Method: Reporter Screening Assay: This assay was used to evaluate the effect on transcriptional activity SREBP of selected compounds using an SRE-luciferase reporter construct. On day 1, 10,000 cells were seeded in a 96 well (white) plate as per the plate map in Growth media without antibiotics. Cells were incubated at 37° C. for 8 hours. After 8 hours, cells were washed with DPBS for complete removal of FBS. DPBS was completely removed and Growth media was replaced with phenol free treatment medium (90 μl) with different FBS concentrations. The cells were then incubated at 37° C. for 24 hours with varying doses (0.01 uM to 10 uM) of compounds. Then a Luciferase assay was performed.
# Reagents for performing Luciferase assay were stored at −20° C. To a tube of lyophilized assay substrate was added 1 mL Substrate Solvent and mixed well. The Substrate tube after reconstitution was covered with aluminum foil so as to keep it protected from light. The assay buffer was thawed to room temperature. To 20 mL Assay Buffer was added 200 μL of reconstituted 100× Substrate and mixed well. The reconstituted substrate as well as the assay solution (buffer+substrate) was protected from light throughout the procedure by keeping it covered with aluminum foil. Using a multi-channel pipette, 100 μL Assay Solution (buffer+substrate) was added directly to each sample well in Plate 1, which was incubated for 30 min (plate was covered with aluminum foil). After 30 min incubation, the plate was read for total luminescence. Each well was read for 2 seconds in a plate luminometer. (Microplate reader Envision Microplate reader from Perkin Elmer). Precaution was taken to incubate plate exactly for 30 min prior to reading on the plate reader.
# SREBPv1 Reporter cell line: HepG2—#32251. Growth Medium: MEM (Corning 10-010), 10% FBS, 1% GlutaMax (Invitrogen Catalog #35050061), […] (Invitrogen Catalog # A1113803) and 1% Penicillin-Streptomycin (Pen-Strep). Treatment Media: Phenol-free MEM (Invitrogen Catalog #51200-038) and 1% GlutaMax (Invitrogen Catalog #35050061). Luciferase Assay: LightSwitch Luciferase Assay Kit (Catalog #32032). LDH assay: Pierce LDH Cytotoxicity Assay Kit (Catalog # SD249616).
smiles,measurement,setting,value
"CN(c1ccc(-c2cc(-c3ccnc(C4CC4)c3)cs2)c(Cl)c1)S(C)(=O)=O [Compound I-9037, N-(3-chloro-4-(4-(2-cyclopropylpyridin-4-yl)thiophen-2-yl)phenyl)-N-methylmethanesulfonamide]",percent parent remaining after 60 min in liver microsomes,[1],+++ (>60.1 = +++)
same,percent of compound remaining after 60 min in human liver microsomes,[2],+++ (>60.1 = +++)
same,EC50,SREBP,< 249 nM
"CC(C)(CO)c1cc(-c2csc(-c3ccc(NC(=O)OC4CC4)cc3Cl)c2)ccn1 [Compound I-8918, Cyclopropyl (3-chloro-4-(4-(2-(1-hydroxy-2-methylpropan-2-yl)pyridin-4-yl)thiophen-2-yl)phenyl)carbamate]",percent parent remaining after 60 min in liver microsomes,[1],++ (30.1-60 = ++)
same,percent of compound remaining after 60 min in human liver microsomes,[2],+++ (>60.1 = +++)
same,EC50,SREBP,250 to 500 nM
"CC(C)(C)c1cc(-c2csc(-c3ccc(NC(=O)NC4CCNCC4)cc3Cl)c2)ccn1 [Compound I-8755, 1-(4-(4-(2-(tert-butyl)pyridin-4-yl)thiophen-2-yl)-3-chlorophenyl)-3-(piperidin-4-yl)urea]",percent parent remaining after 60 min in liver microsomes,[1],+++ (>60.1 = +++)
same,percent of compound remaining after 60 min in human liver microsomes,[2],+++ (>60.1 = +++)
same,EC50,SREBP,> 500 nM
"CS(=O)(=O)Nc1ccc(-c2cc(-c3ccnc(C4(CO)CC4)c3)cs2)c(Cl)c1 [Compound I-9002, N-(3-chloro-4-(4-(2-(1-(hydroxymethyl)cyclopropyl)pyridin-4-yl)thiophen-2-yl)phenyl)methanesulfonamide]",percent parent remaining after 60 min in liver microsomes,[1],+++ (>60.1 = +++)
same,percent of compound remaining after 60 min in human liver microsomes,[2],+++ (>60.1 = +++)
same,EC50,SREBP,< 249 nM
"CS(=O)(=O)Nc1ccc(-c2cc(-c3ccnc(O[C@@H]4COC[C@@H]4O)c3)cs2)c(Cl)c1 [Compound I-9108, N-(3-chloro-4-(4-(2-(((3R,4S)-4-hydroxytetrahydrofuran-3-yl)oxy)pyridin-4-yl)thiophen-2-yl)phenyl)methanesulfonamide]",percent parent remaining after 60 min in liver microsomes,[1],+++ (>60.1 = +++)
same,percent of compound remaining after 60 min in human liver microsomes,[2],+++ (>60.1 = +++)
same,EC50,SREBP,> 500 nM
"CC(C)OC(=O)Nc1ccc(-c2cc(-c3ccnc(CC(C)(C)O)c3)cs2)c(Cl)c1 [Compound I-9051, isopropyl (3-chloro-4-(4-(2-(2-hydroxy-2-methylpropyl)pyridin-4-yl)thiophen-2-yl)phenyl)carbamate]",percent parent remaining after 60 min in liver microsomes,[1],+++ (>60.1 = +++)
same,percent of compound remaining after 60 min in human liver microsomes,[2],+++ (>60.1 = +++)
same,EC50,SREBP,> 500 nM
"Cc1sc(-c2ccc(NS(C)(=O)=O)cc2Cl)cc1-c1ccnc(CC(C)(C)O)c1 [Compound I-9091, N-(3-chloro-4-(4-(2-(2-hydroxy-2-methylpropyl)pyridin-4-yl)-5-methylthiophen-2-yl)phenyl)methanesulfonamide]",percent parent remaining after 60 min in liver microsomes,[1],+++ (>60.1 = +++)
same,percent of compound remaining after 60 min in human liver microsomes,[2],+++ (>60.1 = +++)
same,EC50,SREBP,> 500 nM
"CC(C)(C)c1cc(-c2csc(-c3ccc(NC(=O)N4CCC(O)CC4)cc3Cl)c2)ccn1 [Compound I-8736, N-(4-(4-(2-(tert-butyl)pyridin-4-yl)thiophen-2-yl)-3-chlorophenyl)-4-hydroxypiperidine-1-carboxamide]",percent parent remaining after 60 min in liver microsomes,[1],+++ (>60.1 = +++)
same,percent of compound remaining after 60 min in human liver microsomes,[2],+++ (>60.1 = +++)
same,EC50,SREBP,250 to 500 nM
"CC(C)(CO)c1cc(-c2csc(-c3ccc(NS(=O)(=O)C(F)(F)F)cc3Cl)c2)ccn1 [Compound I-8940, N-(3-chloro-4-(4-(2-(1-hydroxy-2-methylpropan-2-yl)pyridin-4-yl)thiophen-2-yl)phenyl)-1,1,1-trifluoromethanesulfonamide]",percent parent remaining after 60 min in liver microsomes,[1],++ (30.1-60 = ++)
same,percent of compound remaining after 60 min in human liver microsomes,[2],+ (0-30 = +)
same,EC50,SREBP,< 249 nM
